The record followed here is patent US10537558B2 (Bantam Pharmaceutical, LLC, priority 2015, dated 2020).

The EC50 is the midpoint of the concentration-response curve.

For this experiment, the system named is BJAB cells. Put plainly: BJAB cell proliferation (Cell Titer Glo). The conditions noted are these: Homo sapiens, read-out: EC50. It is filed as cell-based. In short, it runs like this: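 BJAB cells exposed to serially diluted compounds (0.1% DMSO final) for about 72 h at 37 °C. Proliferation read by Cell Titer Glo luminescence as percent of untreated controls; EC50 from non-linear regression of dose-response data.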
A general note: Cellular ATP, detected with luciferase, serves as a proxy for viable cell number.

`CCOc1ncccc1-c1c(C)nn(-c2nc(-c3ccc(Cl)c(Cl)c3)c(SC(C)C)s2)c1C(=O)O` [Compound 70, 1-(4-(3,4-dichlorophenyl)-5-(isopropylthio)thiazol-2-yl)-4-(2-ethoxypyridin-3-yl)-3-methyl-1H-pyrazole-5-carboxylic Acid]: the EC50 was 10 to 25 µM. The figure for `Cc1cc(-c2c(C)nn(-c3nc(-c4cc(Cl)ccc4F)c(SC(C)C)s3)c2C(=O)O)cc(C)n1` [Compound 26, 1-(4-(5-chloro-2-fluorophenyl)-5-(isopropylthio)thiazol-2-yl)-4-(2,6-dimethylpyridin-4-yl)-3-methyl-1H-pyrazole-5-carboxylic Acid] is 5 to 10 µM; for `Cc1cc(C)cc(-c2c(C)nn(-c3nc(-c4ccc(Cl)c(Cl)c4)c(SC(C)C)s3)c2C(=O)O)c1` [Compound 143, 1-(4-(3,4-dichlorophenyl)-5-(isopropylthio)thiazol-2-yl)-4-(3,5-dimethylphenyl)-3-methyl-1H-pyrazole-5-carboxylic Acid] it is 1 to 5 µM; for `Cc1nn(-c2nc(-c3ccc(C(F)(F)F)cc3)c(SC(C)C)s2)c(C(=O)NCCOCCOCCOCCN=[N+]=[N-])c1-c1cccc(F)c1` [Compound 249, N-(2-(2-(2-(2-azidoethoxy)ethoxy)ethoxy)ethyl)-4-(3-fluorophenyl)-1-(5-(isopropylthio)-4-(4-(trifluoromethyl)phenyl)thiazol-2-yl)-3-methyl-1H-pyrazole-5-carboxamide] it is > 20 µM. In the case of `COc1ccccc1-c1nc(-n2nc(C)c(-c3cc(C)nc(C)c3)c2C(=O)O)sc1SC(C)C` [Compound 34, 4-(2,6-dimethylpyridin-4-yl)-1-(5-(isopropylthio)-4-(2-methoxyphenyl)thiazol-2-yl)-3-methyl-1H-pyrazole-5-carboxylic acid] it was 5 to 10 µM; in that of `Cc1cc(-c2c(C)nn(-c3nc(-c4ccc(Cl)c(Cl)c4)c(SC(C)C)s3)c2C(=O)O)cc(N(C)C)c1` [Compound 99, 1-(4-(3,4-dichlorophenyl)-5-(isopropylthio)thiazol-2-yl)-4-(3-(dimethylamino)-5-methylphenyl)-3-methyl-1H-pyrazole-5-carboxylic acid], 5 to 10 µM; in that of `Cc1cc(-c2c(C)nn(-c3nc(-c4cccc(Cl)c4)c(SC(C)C)s3)c2C(=O)O)cc(C)n1` [Compound 158, 1-(4-(3-chlorophenyl)-5-(isopropylthio)thiazol-2-yl)-4-(2,6-dimethylpyridin-4-yl)-3-methyl-1H-pyrazole-5-carboxylic Acid], 5 to 10 µM. `Cc1nn(-c2nc(-c3ccc(Cl)c(Cl)c3)c(SC(C)C)s2)c(C(=O)O)c1-c1cc(Cl)cc(OC(C)C)c1` [Compound 174, 4-(3-chloro-5-isopropoxyphenyl)-1-(4-(3,4-dichlorophenyl)-5-(isopropylthio)thiazol-2-yl)-3-methyl-1H-pyrazole-5-carboxylic Acid]: the EC50 lay in the range of 1 to 5 µM. For `Cc1nn(-c2nc(-c3ccc4[nH]ccc4c3)c(SC(C)C)s2)c(C(=O)O)c1-c1cccc(F)c1` [Compound 170, 1-(4-(1H-indol-5-yl)-5-(isopropylthio)thiazol-2-yl)-4-(3-fluorophenyl)-3-methyl-1H-pyrazole-5-carboxylic acid], the EC50 is > 25 µM. `Cc1cc(-c2c(C)nn(-c3nc(-c4cc(Cl)ccc4Cl)c(SC(C)C)s3)c2C(=O)O)cc(C)n1` [Compound 161, 1-(4-(2,5-dichlorophenyl)-5-(isopropylthio)thiazol-2-yl)-4-(2,6-dimethylpyridin-4-yl)-3-methyl-1H-pyrazole-5-carboxylic acid]: the EC50 fell in the range of 5 to 10 µM. In the case of `Cc1nn(-c2nc(-c3ccc(Cl)c(Cl)c3)c(SC(C)C)s2)c(C(=O)O)c1-c1nc2ccccc2[nH]1` [Compound 58, 4-(1H-benzo[d]imidazol-2-yl)-1-(4-(3,4-dichlorophenyl)-5-(isopropylthio)thiazol-2-yl)-3-methyl-1H-pyrazole-5-carboxylic Acid] it was 25 to 50 µM; in that of `Cc1nn(-c2nc(-c3ccc(Cl)c(Cl)c3)c(SC(C)C)s2)c(C(=O)O)c1-c1ccc(C(F)(F)F)cc1` [Compound 52, 1-(4-(3,4-dichlorophenyl)-5-(isopropylthio)thiazol-2-yl)-3-methyl-4-(4-(trifluoromethyl)phenyl)-1H-pyrazole-5-carboxylic Acid], 10 to 25 µM; in that of `Cc1nn(-c2nc(-c3ccc(Cl)c(Cl)c3)c(SC(C)C)s2)c(C(=O)O)c1-c1cnn(C)c1` [Compound 66, 2-(4-(3,4-dichlorophenyl)-5-(isopropylthio)thiazol-2-yl)-2′,5-dimethyl-4,4′-bi(2H-pyrazole)-3-carboxylic acid], 5 to 10 µM.

For `COCCNC(=O)c1c(-c2cccc(F)c2)c(C)nn1-c1nc(-c2ccc(C(F)(F)F)cc2)c(SC(C)C)s1` [Compound 250, 4-(3-fluorophenyl)-1-(5-(isopropylthio)-4-(4-(trifluoromethyl)phenyl)thiazol-2-yl)-N-(2-methoxyethyl)-3-methyl-1H-pyrazole-5-carboxamide], the EC50 lay in the range of 10 to 25 µM. In the case of `Cc1cc(O)cc(-c2c(C)nn(-c3nc(-c4ccc(Cl)c(Cl)c4)c(SC(C)C)s3)c2C(=O)O)c1` [Compound 96, 1-(4-(3,4-dichlorophenyl)-5-(isopropylthio)thiazol-2-yl)-4-(3-hydroxy-5-methylphenyl)-3-methyl-1H-pyrazole-5-carboxylic acid], the EC50 is > 25 µM. The figure for `Cc1nn(-c2nc(-c3ccc(Cl)c(Cl)c3)c(SC(C)C)s2)c(C(=O)O)c1-c1c(Cc2ccccc2)noc1C` [Compound 86, 4-(3-benzyl-5-methylisoxazol-4-yl)-1-(4-(3,4-dichlorophenyl)-5-(isopropylthio)thiazol-2-yl)-3-methyl-1H-pyrazole-5-carboxylic Acid] is 1 to 5 µM; for `Cc1ccc(-c2nc(-n3nc(C)c(-c4cc(C)nc(C)c4)c3C(=O)O)sc2SC(C)C)cc1` [Compound 40, 4-(2,6-dimethylpyridin-4-yl)-1-(5-(isopropylthio)-4-p-tolylthiazol-2-yl)-3-methyl-1H-pyrazole-5-carboxylic acid] it is 1 to 5 µM. The figure for `CCN(CC)C1CCN(C(=O)c2c(-c3cc(C(F)(F)F)cc(C(F)(F)F)c3)c(C)nn2-c2nc(-c3ccc(Cl)c(Cl)c3)c(SC(C)C)s2)C1` (centres unmarked) [Compound 78, (4-(3,5-bis(trifluoromethyl)phenyl)-1-(4-(3,4-dichlorophenyl)-5-(isopropylthio)thiazol-2-yl)-3-methyl-1H-pyrazol-5-yl)(3-(diethylamino)pyrrolidin-1-yl)methanone] is > 40 µM; for `Cc1cc(OC(F)(F)F)ccc1-c1nc(-n2nc(C)c(-c3cccc(F)c3)c2C(=O)O)sc1SC(C)C` [Compound 224, 4-(3-fluorophenyl)-1-(5-(isopropylthio)-4-(2-methyl-4-(trifluoromethoxy)phenyl)thiazol-2-yl)-3-methyl-1H-pyrazole-5-carboxylic acid] it is < 1 µM; for `Cc1nn(-c2nc(-c3ccc(Cl)c(Cl)c3)c(SC(C)C)s2)c(C(=O)O)c1-c1cnn(C(=O)N(C)C)c1` [Compound 135, 1-(4-(3,4-dichlorophenyl)-5-(isopropylthio)thiazol-2-yl)-1′-(dimethylcarbamoyl)-3-methyl-1H,1′H-[4,4′-bipyrazole]-5-carboxylic acid] it is 25 to 50 µM.

Consider `Cc1cc(-c2c(C)nn(-c3nc(-c4ccc(Cl)cc4)c(SC(C)C)s3)c2C(=O)O)cc(C)n1` [Compound 159, 1-(4-(4-chlorophenyl)-5-(isopropylthio)thiazol-2-yl)-4-(2,6-dimethylpyridin-4-yl)-3-methyl-1H-pyrazole-5-carboxylic Acid], for which the EC50 is < 1 µM. On to `Cc1nn(-c2nc(-c3ccc(Cl)c(Cl)c3)c(SC(C)C)s2)c(C(=O)O)c1-c1cnn2ccccc12` [Compound 64, 1-(4-(3,4-dichlorophenyl)-5-(isopropylthio)thiazol-2-yl)-3-methyl-4-(pyrazolo[1,5-a]pyridin-3-yl)-1H-pyrazole-5-carboxylic acid], for which the EC50 lay within 10 to 25 µM. `Cc1nn(-c2nc(C3CC3)c(SC(C)C)s2)c(C(=O)O)c1C1CC1` [Compound 172, 4-cyclopropyl-1-(4-cyclopropyl-5-(isopropylthio)thiazol-2-yl)-3-methyl-1H-pyrazole-5-carboxylic Acid]: the EC50 is > 25 µM. `CCC(C)Sc1sc(-n2nc(C)c(-c3cc(Cl)cc(Cl)c3)c2C(=O)O)nc1-c1ccc(Cl)c(Cl)c1` (centres unmarked) [Compound 32b]: the EC50 lay in the range of 1 to 5 µM.

As for `Cc1nn(-c2nc(-c3cc4ccccc4o3)c(SC(C)C)s2)c(C(=O)O)c1-c1cccc(F)c1` [Compound 201b], the half-maximal effective concentration (EC50) fell in the range of 10 to 25 µM.

For the compound `Cc1nn(-c2nc(-c3ccc(C(F)(F)F)cc3)cs2)c(C(=O)O)c1-c1cccc(F)c1` [Compound 247, 4-(3-fluorophenyl)-3-methyl-1-(4-(4-(trifluoromethyl)phenyl)thiazol-2-yl)-1H-pyrazole-5-carboxylic acid], the EC50 lay in the range of 10 to 25 µM.

Consider `CCCCSc1sc(-n2nc(C)c(Cc3ccccc3[N+](=O)[O-])c2C(=O)OC)nc1-c1ccc(Cl)c(Cl)c1` [Compound 11, methyl 1-(5-(butylthio)-4-(3,4-dichlorophenyl)thiazol-2-yl)-3-methyl-4-(2-nitrobenzyl)-1H-pyrazole-5-carboxylate], for which the EC50 is > 80 µM. In the case of `Cc1nn(-c2nc(-c3cc(C)c(=O)n(C)c3)c(SC(C)C)s2)c(C(=O)O)c1-c1cccc(F)c1` [Compound 208, 1-(4-(1,5-dimethyl-6-oxo-1,6-dihydropyridin-3-yl)-5-(isopropylthio)thiazol-2-yl)-4-(3-fluorophenyl)-3-methyl-1H-pyrazole-5-carboxylic Acid] it was > 40 µM; in that of `Cc1cc(-c2c(C)nn(-c3nc(-c4ccc(Cl)c(Cl)c4)c(SC(C)C)s3)c2C(=O)O)cc(O[C@@H]2CCOC2)n1` [Compound 180, (R)-1-(4-(3,4-dichlorophenyl)-5-(isopropylthio)thiazol-2-yl)-3-methyl-4-(2-methyl-6-((tetrahydrofuran-3-yl)oxy)pyridin-4-yl)-1H-pyrazole-5-carboxylic Acid], 10 to 25 µM.
